Reference: US8613950B2, “Pharmaceutical forms with improved pharmacokinetic properties” (Bayer Intellectual Property GmbH, priority 2005, dated 2013)
Structures can show the parent of a compound that is named as a salt.

Columns and labels:
[1] = cited from earlier work
[2] = Solubility of the vardenafil form employed in 10 ml of physiological saline at 25° C.; assay type: physicochemical
Text: Accordingly, the present invention provides a vardenafil-comprising drug formulation, which is characterized in that the solubility of the form of vardenafil employed in a small amount of aqueous liquid is sufficiently high and the dissolution rate of the formulation disintegrating in the mouth is sufficiently rapid.

SMILES	bioavailability ([1]; known property of vardenafil, oral)	time after administration at which the rapid decrease in the plasma concentration occurs ([1]; oral administration of vardenafil)	amount of the active compound form that dissolves in 10 ml of physiological saline ([2]; 10 ml physiological saline, amount offered = tablet dose corresponding to 10 mg of vardenafil, hydrochloride trihydrate)	dissolved amount expressed as vardenafil ([2]; 10 ml physiological saline, dose 11.85 mg vardenafil hydrochloride trihydrate) [mg]	share of the active compound employed that dissolves in 10 ml of physiological saline ([2]; dose 5.93 mg vardenafil hydrochloride trihydrate (5 mg vardenafil)) [%]	share of the dose of the active compound employed that dissolves in 10 ml of physiological saline ([2]; dose corresponding to 10 mg of vardenafil, hydrochloride trihydrate) [%]
CCCc1nc(C)c2c(=O)[nH]c(-c3cc(S(=O)(=O)N4CCN(CC)CC4)ccc3OCC)nn12 [vardenafil]	about 14%	about 1 hour				
CCCc1nc(C)c2c(=O)[nH]c(-c3cc(S(=O)(=O)N4CCN(CC)CC4)ccc3OCC)nn12 [vardenafil hydrochloride trihydrate]			about 10.4 mg	8.8	91	88
